Source: US20250034110A1, “LPAR1 ANTAGONISTS AND USES THEREOF” (Pipeline Therapeutics, Inc., priority 2021, published 2025)
pIC50: −log10 of the molar value. Like-named read-outs stand apart in the source and are kept apart here.

Target: human LPAR1 (Homo sapiens, UniProt Q92633)
Assay: In vitro functional assay of lysophosphatidic acid receptor 1 activity (calcium flux)
Format: cell-based
[1] = B103 cells stably expressing human LPAR1, calcium flux (Fluo-4 NW) after lysophosphatidic acid (18:1) at EC80, 100 pM to 10 μM, read-out: LPAR1 IC50

human LPAR1, sequence (Q92633 whole entry): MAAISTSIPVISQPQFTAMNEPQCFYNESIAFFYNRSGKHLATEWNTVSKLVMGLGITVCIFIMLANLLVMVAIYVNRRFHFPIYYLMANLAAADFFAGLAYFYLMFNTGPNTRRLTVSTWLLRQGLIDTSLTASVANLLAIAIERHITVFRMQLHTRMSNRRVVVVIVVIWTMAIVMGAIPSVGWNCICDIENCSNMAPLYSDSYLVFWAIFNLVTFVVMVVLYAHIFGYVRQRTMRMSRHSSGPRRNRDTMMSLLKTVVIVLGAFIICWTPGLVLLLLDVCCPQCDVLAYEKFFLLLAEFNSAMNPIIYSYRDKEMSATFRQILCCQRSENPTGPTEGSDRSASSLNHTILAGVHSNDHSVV

SMILES | pIC50 [1] | pIC50 (LPAR1 IC50)
COc1ccc(NC(=O)N(c2ccccc2C(C)C)C2CCCN(C)C2=O)c(OC(F)F)n1 (centres unmarked) [Example 45, 3-(2-(difluoromethoxy)-6-methoxypyridin-3-yl)-1-(2-isopropylphenyl)-1-(1-methyl-2-oxopiperidin-3-yl)urea] | 6.00 to 7.00 | –
COc1ccc(NC(=O)N(c2ccccc2C(C)C)[C@H]2CC[C@H](C(=O)O)CC2)c(OC)n1 [Example 288, (1r,4r)-4-(3-(2,6-dimethoxypyridin-3-yl)-1-(2-isopropylphenyl)ureido)cyclohexane-1-carboxylic acid] | 7.00 to 8.00 | –
COc1ccc(NC(=O)N(c2ccccc2C(C)C)C2CC3CC2CN3C(C)=O)c(OC(F)F)n1 (centres unmarked) [Example 57, 1-(2-acetyl-2-azabicyclo[2.2.1]heptan-5-yl)-3-(2-(difluoromethoxy)-6-methoxypyridin-3-yl)-1-(2-isopropylphenyl)urea] | – | 6.00 to 7.00
CC(C)c1ccccc1N(C(=O)Nc1ncc(Br)cc1OC(F)F)C1CC(CC(=O)O)C1 (centres unmarked) [Example 176] | 7.00 to 8.00 | –
CC(C)c1ccccc1N(C(=O)Nc1ccc(Cl)cn1)[C@H]1C[C@@H](CC(=O)O)C1 [Example 306] | 6.00 to 7.00 | –
COc1ccc(NC(=O)N(CC23CC(C(=O)O)(C2)C3(F)F)c2ccccc2C(C)C)c(OC(F)F)n1 [Example 234] | 7.00 to 8.00 | –
Cc1ccc(NC(=O)N(c2ccccc2C(C)C)[C@@H]2CCC(=O)N(C)C2)c(OC(F)F)n1 [Example 5, (R)-3-(2-(difluoromethoxy)-6-methylpyridin-3-yl)-1-(2-isopropylphenyl)-1-(1-methyl-6-oxopiperidin-3-yl)urea] | 7.00 to 8.00 | –
Cc1ccc(NC(=O)N(c2ccccc2C(C)C)[C@H]2C[C@@H](C(=O)O)C2)c(OC(F)F)n1 [Example 162, cis-3-(3-(2-(difluoromethoxy)-6-methylpyridin-3-yl)-1-(2-isopropylphenyl)ureido)cyclobutane-1-carboxylic acid] | 6.00 to 7.00 | –
COc1ccc(NC(=O)N(c2ccccc2C(C)C)[C@H]2CC[C@@H](OC)CC2)c(OC(F)F)n1 [Example 39, 3-(2-(difluoromethoxy)-6-methoxypyridin-3-yl)-1-(2-isopropylphenyl)-1-((1s,4s)-4-methoxycyclohexyl)urea] | 6.00 to 7.00 | –
Cc1nc(OC(F)F)c(NC(=O)N(c2ccccc2C(C)C)[C@H]2CC[C@@H](CC(=O)O)CC2)cc1F [Example 222] | 7.00 to 8.00 | –
COc1ccc(NC(=O)N(c2ccccc2C(C)CO)[C@H]2CC[C@H](C(=O)O)CC2)c(OC(F)F)n1 (stereo partly drawn) [Example 282, (1r,4r)-4-(3-(2-(difluoromethoxy)-6-methoxypyridin-3-yl)-l-(2-(1-hydroxypropan-2-yl)phenyl)ureido)cyclohexane-1-carboxylic acid] | 6.00 to 7.00 | –
Cc1ccc(NC(=O)N(c2ccccc2C(C)C)C2CCN(C(=O)Cn3nccn3)CC2)c(OC(F)F)n1 [Example 79, 1-(1-(2-(2H-1,2,3-triazol-2-yl)acetyl)piperidin-4-yl)-3-(2-(difluoromethoxy)-6-methylpyridin-3-yl)-1-(2-isopropylphenyl)urea] | – | > 8.00
Cc1ccc(NC(=O)N(c2ccccc2C(C)C)[C@H]2CCN(C(=O)OC(C)(C)C)C2)c(OC(F)F)n1 [Example 8, tert-butyl (S)-3-(3-(2-(difluoromethoxy)-6-methylpyridin-3-yl)-1-(2-isopropylphenyl)ureido)pyrrolidine-1-carboxylate] | 6.00 to 7.00 | –
CC(=O)N1C[C@@H]2[C@H](C1)[C@H]2N(C(=O)Nc1ccc(C)nc1OC(F)F)c1ccccc1C(C)C [Example 69, 1-((1R,5S,6s)-3-acetyl-3-azabicyclo[3.1.0]hexan-6-yl)-3-(2-(difluoromethoxy)-6-methylpyridin-3-yl)-1-(2-isopropylphenyl)urea] | – | 6.00 to 7.00
CC(=O)N1CCC(N(C(=O)Nc2ccc(C)nc2OCC(F)(F)F)c2ccccc2C(C)C)CC1 [Example 104] | – | 6.00 to 7.00
CC(C)c1ccccc1N(C(=O)Nc1ccc(C2CC2)nc1OC(F)F)[C@H]1CC[C@H](C(=O)O)CC1 [Example 232] | 7.00 to 8.00 | –
COc1ccc(NC(=O)N(c2ccccc2C(C)C)[C@H]2CC[C@H](C(=O)O)CC2)c(OCC(F)F)n1 [Example 289, (1r,4r)-4-(3-(2-(2,2-difluoroethoxy)-6-methoxypyridin-3-yl)-1-(2-isopropylphenyl)ureido)cyclohexane-1-carboxylic acid] | > 8.00 | –
COC[C@H](C)Oc1nc(OC)ccc1NC(=O)N(c1ccccc1C(C)C)[C@H]1CC[C@H](C(=O)O)CC1 [Example 339, trans-4-(1-(2-isopropylphenyl)-3-(6-methoxy-2-(((S)-1-methoxypropan-2-yl)oxy)pyridin-3-yl)ureido)cyclohexane-1-carboxylic acid] | 7.00 to 8.00 | –
Cc1ccc(NC(=O)N(CC2CC(CC(=O)O)C2)c2ccccc2C(C)C)c(OC(F)F)n1 (centres unmarked) [Example 224] | > 8.00 | –
CC(=O)N1CCC(N(C(=O)Nc2cnccn2)c2ccccc2C(C)C)CC1 [Example 130] | – | < 6.00
CNC(=O)CC1CC(N(C(=O)Nc2ccc(C)nc2OC(F)F)c2ccccc2C(C)C)C1 (centres unmarked) [Example 190, 2-(3-(3-(2-(difluoromethoxy)-6-methylpyridin-3-yl)-1-(2-isopropylphenyl)ureido)cyclobutyl)-N-methylacetamide] | 6.00 to 7.00 | –
CC(=O)N1CCC(N(C(=O)Nc2cc(F)c(Br)nc2OC(F)F)c2ccccc2C(C)C)CC1 [Example 217] | – | 7.00 to 8.00
CC(C)c1ccccc1N(C(=O)Nc1cc(F)c(F)cc1OC(F)F)[C@H]1C[C@H](C(=O)O)C1 [Example 164, trans-3-(3-(2-(difluoromethoxy)-4,5-difluorophenyl)-1-(2-isopropylphenyl)ureido)cyclobutane-1-carboxylic acid] | 7.00 to 8.00 | –
Cc1ccc(NC(=O)N(c2ccccc2C(C)C)[C@H]2CC[C@H](c3cccnc3)CC2)c(OC(F)F)n1 [Example 261, 3-(2-(difluoromethoxy)-6-methylpyridin-3-yl)-1-(2-isopropylphenyl)-1-((1r,4r)-4-(pyridin-3-yl)cyclohexyl)urea] | 6.00 to 7.00 | –
Cc1ccc(NC(=O)N(c2ccccc2C(C)C)C2CN(S(N)(=O)=O)C2)c(OC(F)F)n1 [Example 127, 3-(3-(2-(difluoromethoxy)-6-methylpyridin-3-yl)-1-(2-isopropylphenyl)ureido)azetidine-1-sulfonamide] | 7.00 to 8.00 | –
[2H]C([2H])([2H])c1ccc(NC(=O)N(c2ccccc2C(C)C)[C@H]2CC[C@H](C(=O)O)CC2)c(OC(F)F)n1 [Example 156, trans-4-(3-(2-(difluoromethoxy)-6-(methyl-d3)pyridin-3-yl)-1-(2-isopropylphenyl)ureido)cyclohexane-1-carboxylic acid] | > 8.00 | –
COC(C)c1ccccc1N(C(=O)Nc1ccc(C)nc1OC(F)F)C1CCN(C(C)=O)CC1 (centres unmarked) [Example 35, 1-(1-acetylpiperidin-4-yl)-3-(2-(difluoromethoxy)-6-methylpyridin-3-yl)-1-(2-(1-methoxyethyl)phenyl)urea] | – | 6.00 to 7.00
COC[C@H](C)Oc1nc(C)ccc1NC(=O)N(c1ccccc1C(C)C)[C@H]1CC[C@H](C(=O)O)CC1 [Example 316, trans-4-(1-(2-isopropylphenyl)-3-(2-(((S)-1-methoxypropan-2-yl)oxy)-6-methylpyridin-3-yl)ureido)cyclohexane-1-carboxylic acid] | 7.00 to 8.00 | –
CC(C)c1ccccc1N(C(=O)Nc1cc(F)c(C2CC2)nc1OC(F)F)[C@H]1CC[C@H](C(=O)O)CC1 [Example 223] | 7.00 to 8.00 | –
